Source: US20230120736A1, “ANTI-CD98 ANTIBODIES AND ANTIBODY DRUG CONJUGATES” (AbbVie Inc., priority 2016, published 2023)

Legend:
[1] = test system: A549 human lung carcinoma xenograft; assay: A549 FP3 xenograft tumor growth inhibition, with or without docetaxel; assay type: in vivo, mouse; conditions: QDx1, Ab095 8 IP, docetaxel 7.5 IV, ADC 10 mg/kg/day IP
Description: (§1) The cell lines A549 and NCI-H460 were obtained from the American Type Culture Collection (ATCC, Manassas, Va.). A549 cell line was further passaged in mice as flank xenograft to improve xenograft tumor growth, resulting in the A549-FP3 line. Cells were cultured as monolayers in RPMI-1640 culture media (Invitrogen, Carlsbad, Calif.) supplemented with 10% Fetal Bovine Serum (FBS, Hyclone, Logan, Utah). To generate xenografts, 5×10^6 (A549 and NCI-H460) viable cells were inoculated subcutaneously into the right flank of immune deficient female SCID-bg mice (Charles River Laboratories, Wilmington, Mass.). The injection volume was 0.2 ml and composed of 1:1 S-MEM:Matrigel Matrigel (BD, Franklin Lakes, N.J.). Tumors were size matched at approximately 223 mm^3. […] Measurements of the length (L) and width (W) of the tumor were taken via electronic caliper and the volume was calculated according to the following equation: V=L×W^2/2. […]
(§2) To refer to efficacy of therapeutic agents, parameters of amplitude (TGI.), durability (TGD) are used. […] Tumor growth inhibition is calculated by 100*(1−Tv/Cv) where Tv and Cv are the mean tumor volumes of the treated and control groups, respectively. […] TGD is calculated by 100*(Tt/Ct−1) where Tt and Ct are the median time periods to reach 1 cm^3 of the treated and control groups, respectively.

[2] = test system: NCI-H460 human lung carcinoma xenograft; assay: NCI-H460 xenograft tumor growth inhibition, with or without docetaxel; assay type: in vivo, mouse; conditions: QDx1, Ab095 8 IP, docetaxel 7.5 IV, ADC 10 mg/kg/day IP
Description: as §1, §2

CC(=O)O[C@@]12CO[C@@H]1C[C@H](O)[C@@]1(C)C(=O)[C@H](O)C3=C(C)[C@@H](OC(=O)[C@H](O)[C@@H](NC(=O)OC(C)(C)C)c4ccccc4)C[C@@](O)([C@@H](OC(=O)c4ccccc4)[C@H]21)C3(C)C [Docetaxel, docetaxel, reference compound]
TGD [1]: 80%
TGImax [1]: 62%
TGD [2]: 30%
TGImax [2]: 35%
